Measurements: patent US7244855B2, “Synthesis of oligomeric epicatechin and catechin-derived procyanidins” (Mars, Inc., priority 2002, dated 2007)

Tests used:
[1] = test system: MDA MB-231 human breast cancer cells; assay: Cell cycle analysis by flow cytometry (Vindelov method); type: cell-based; settings: for Effect on cell cycle (G0/G1 arrest), in words: procyanidin-treated MDA MB-231 cells, see Table 1; for Increase in G0/G1 arrest, synthetic compared to natural procyanidin: see Table 2
Method: The MDA MB-231 cell line was P53 defective, ER negative, and constitutively expressed K-ras. Cells were cultured in T-75s in IMEM medium (BioFluids Inc.) supplemented with 10% FBS (Gibco BRL Life Technologies) in a humidified 5% CO2 atmosphere at 37° C. […] See Vindelov, L. et al., “A Detergent Trypsin Method for the Preparation of Nuclei for Flow Cytometric DNA Analysis”, Cytometry, 1983, 3, 323–327. Analyses were performed by the Lombardi Cancer Center Flow Cytometry Core Facility at Georgetown University Medical Center.

[2] = test system: human breast cancer cell lines; assay: Cytotoxicity assay (microculture tetrazolium assay modified for crystal violet); type: cell-based
Method: The human breast cancer cell lines MCF-7, SKBR-3, MDA 435, and MDA MB-231 were obtained from the Lombardi Cancer Center Cell Culture Core Facility at Georgetown University Medical Center. The MDA MB-231 cell line was P53 defective, ER negative, and constitutively expressed K-ras. Cells were cultured in T-75s in IMEM medium (BioFluids Inc.) supplemented with 10% FBS (Gibco BRL Life Technologies) in a humidified 5% CO2 atmosphere at 37° C.
Cytotoxicity assays were performed on several human breast cancer cell lines treated with test compounds in a 96 well microtiter plate format using the microculture tetrazolium assay^28 modified for use with crystal violet rather than MTT. Briefly, 1–2×10^3 cells were added per well and allowed to culture in a humidified, 5% CO2 atmosphere until they reached approximately 50% confluence. Sterile filtered test compounds were added at various concentrations, and the plates were allowed to culture for an additional 12–36 hours. The growth medium was then removed, and each well was washed twice with 200 μL each of pH 7.4 PBS. […] At the end of 1 hour, the plates were scanned at 570 nm (ref. 405 nm) with a Molecular Devices Corporation microtiter plate reader, and the data was recorded with the SOFTMAX software program. The average of 3 readings was taken for each blank, control, vehicle, and test concentration for statistical data manipulation.

[3] = Table 3, 100 μM H2O2 + catalase, 24 hr
[4] = Table 3, 100 μM H2O2 + heat inactivated catalase, 24 hr
[5] = Table 3, 200 μg/mL + 100 μM H2O2 + catalase, 24 hr
[6] = Table 3, 200 μg/mL + 100 μM H2O2 + heat inactivated catalase, 24 hr
[7] = Table 3, 200 μg/mL + 100 μM H2O2, 24 hr
[8] = Table 3, 200 μg/mL + catalase, 24 hr
[9] = Table 3, 200 μg/mL + heat inactivated catalase, 24 hr
[10] = Table 2, natural versus synthetic, 200 μg/mL, 24 hr
[11] = Table 1, procyanidins purified from cocoa, 200 μg/mL, 24 hrs

OO [H2O2, hydrogen peroxide, reference compound]
% G0/G1 [1, 3]: 35.20%
% G2/M [1, 3]: 21.86%
% S [1, 3]: 42.93%
% G0/G1 [1, 4]: 20.27%
% G2/M [1, 4]: 34.25%
% S [1, 4]: 45.48%
% G0/G1 ([1]; Table 3, 100 μM H2O2, 24 hr): 20.32%
% G2/M ([1]; Table 3, 100 μM H2O2, 24 hr): 34.76%
% S ([1]; Table 3, 100 μM H2O2, 24 hr): 44.92%
Effect of hydrogen peroxide on cell cycle, in words ([1]; hydrogen peroxide at levels reported in the literature, see Table 3): shift in the cell cycle to G2/M with a decrease in G0/G1

Oc1cc(O)c2c(c1)O[C@H](c1ccc(O)c(O)c1)[C@H](O)[C@H]2c1c(O)cc(O)c2c1O[C@H](c1ccc(O)c(O)c1)[C@H](O)[C@H]2c1c(O)cc(O)c2c1O[C@H](c1ccc(O)c(O)c1)[C@H](O)[C@H]2c1c(O)cc(O)c2c1O[C@H](c1ccc(O)c(O)c1)[C@H](O)[C@H]2c1c(O)cc(O)c2c1O[C@H](c1ccc(O)c(O)c1)[C@H](O)C2 [Pentamers, epicatechin (4β,8)4-pentamer]
Cytotoxicity to human breast cancer cell lines ([2]; purified from cocoa polyphenol extracts or prepared synthetically): cytotoxicity to human breast cancer cell lines
% G0/G1 [1, 5]: 48.20%
% G2/M [1, 5]: 20.68%
% S [1, 5]: 31.12%
% G0/G1 [1, 6]: 39.47%
% G2/M [1, 6]: 37.14%
% S [1, 6]: 23.39%
% G0/G1 [1, 7]: 42.67%
% G2/M [1, 7]: 38.71%
% S [1, 7]: 18.63%
% G0/G1 [1, 8]: 41.23%
% G2/M [1, 8]: 20.12%
% S [1, 8]: 39.65%
% G0/G1 [1, 9]: 42.89%
% G2/M [1, 9]: 17.68%
% S [1, 9]: 39.43%
% G0/G1 ([1]; Table 3, 200 μg/mL, 24 hr): 44.94%
% G2/M ([1]; Table 3, 200 μg/mL, 24 hr): 17.05%
% S ([1]; Table 3, 200 μg/mL, 24 hr): 38.01%
Effect on cell cycle (G0/G1 arrest), in words [1]: caused a G0/G1 arrest

Oc1cc(O)c2c(c1)O[C@H](c1ccc(O)c(O)c1)[C@H](O)[C@H]2c1c(O)cc(O)c2c1O[C@H](c1ccc(O)c(O)c1)[C@H](O)[C@H]2c1c(O)cc(O)c2c1O[C@H](c1ccc(O)c(O)c1)[C@H](O)[C@H]2c1c(O)cc(O)c2c1O[C@H](c1ccc(O)c(O)c1)[C@H](O)[C@H]2c1c(O)cc(O)c2c1O[C@H](c1ccc(O)c(O)c1)[C@H](O)C2 [Natural pentamer, epicatechin (4β,8)4-pentamer]
% G0/G1 [1, 10]: 45.99%
% G2/M [1, 10]: 15.76%
% S [1, 10]: 38.25%

Oc1cc(O)c2c(c1)O[C@H](c1ccc(O)c(O)c1)[C@H](O)[C@H]2c1c(O)cc(O)c2c1O[C@H](c1ccc(O)c(O)c1)[C@H](O)[C@H]2c1c(O)cc(O)c2c1O[C@H](c1ccc(O)c(O)c1)[C@H](O)C2 [Natural trimer, epicatechin (4β,8)2-trimer]
% G0/G1 [1, 11]: 43.22%
% G2/M [1, 11]: 20.80%
% S [1, 11]: 35.98%
% G0/G1 [1, 10]: 28.46%
% G2/M [1, 10]: 23.05%
% S [1, 10]: 48.49%
Effect on cell cycle (G0/G1 arrest), in words [1]: no effect

Oc1cc(O)c2c(c1)O[C@H](c1ccc(O)c(O)c1)[C@H](O)[C@H]2c1c(O)cc(O)c2c1O[C@H](c1ccc(O)c(O)c1)[C@H](O)[C@H]2c1c(O)cc(O)c2c1O[C@H](c1ccc(O)c(O)c1)[C@H](O)C2 [Synthetic trimer, epicatechin (4β,8)2-trimer]
Increase in G0/G1 arrest, synthetic compared to natural procyanidin ([1]; 200 μg/mL, 24 hr): No difference in activity
% G0/G1 [1, 10]: 26.98%
% G2/M [1, 10]: 23.45%
% S [1, 10]: 49.57%

Oc1cc(O)c2c(c1)O[C@H](c1ccc(O)c(O)c1)[C@H](O)[C@H]2c1c(O)cc(O)c2c1O[C@H](c1ccc(O)c(O)c1)[C@H](O)[C@H]2c1c(O)cc(O)c2c1O[C@H](c1ccc(O)c(O)c1)[C@H](O)[C@H]2c1c(O)cc(O)c2c1O[C@H](c1ccc(O)c(O)c1)[C@H](O)[C@H]2c1c(O)cc(O)c2c1O[C@H](c1ccc(O)c(O)c1)[C@H](O)C2 [Synthetic pentamer, epicatechin (4β,8)4-pentamer]
Cell growth inhibition ([2]; several breast cancer cell lines): inhibited cell growth
Increase in G0/G1 arrest, synthetic compared to natural procyanidin ([1]; 200 μg/mL, 24 hr): approximately 30%
% G0/G1 [1, 10]: 64.15%
% G2/M [1, 10]: 12.49%
% S [1, 10]: 23.36%

Oc1cc(O)c2c(c1)O[C@H](c1ccc(O)c(O)c1)[C@H](O)[C@H]2c1c(O)cc(O)c2c1O[C@H](c1ccc(O)c(O)c1)[C@H](O)[C@H]2c1c(O)cc(O)c2c1O[C@H](c1ccc(O)c(O)c1)[C@H](O)[C@H]2c1c(O)cc(O)c2c1O[C@H](c1ccc(O)c(O)c1)[C@H](O)C2 [Synthetic tetramer, epicatechin (4β,8)3-tetramer]
Increase in G0/G1 arrest, synthetic compared to natural procyanidin ([1]; 200 μg/mL, 24 hr): approximately 15%
% G0/G1 [1, 10]: 43.49%
% G2/M [1, 10]: 17.03%
% S [1, 10]: 39.39%

Oc1cc(O)c2c(c1)O[C@H](c1ccc(O)c(O)c1)[C@H](O)[C@H]2c1c(O)cc(O)c2c1O[C@H](c1ccc(O)c(O)c1)[C@H](O)[C@H]2c1c(O)cc(O)c2c1O[C@H](c1ccc(O)c(O)c1)[C@H](O)[C@H]2c1c(O)cc(O)c2c1O[C@H](c1ccc(O)c(O)c1)[C@H](O)C2 [Natural tetramer, epicatechin (4β,8)3-tetramer]
% G0/G1 [1, 11]: 51.46%
% G2/M [1, 11]: 20.30%
% S [1, 11]: 28.25%
% G0/G1 [1, 10]: 36.82%
% G2/M [1, 10]: 19.02%
% S [1, 10]: 43.37%
Effect on cell cycle (G0/G1 arrest), in words [1]: only a slight effect
